According to PMC4929832 (Nature, 2016):

Experiments:
AKT1 = AKT1 (Homo sapiens, UniProt P31749); test: kinase panel; type: biochemical
MAPK1 = MAPK1 (Homo sapiens, UniProt P28482); test: kinase panel; type: biochemical
FYN = FYN (Homo sapiens, UniProt P06241); test: kinase panel; type: biochemical
PAK6 = PAK6 (Homo sapiens, UniProt Q9NQU5); test: kinase panel; type: biochemical
RON = RON (Homo sapiens, UniProt Q04912); test: kinase panel; type: biochemical
AKT3 = AKT3 (Homo sapiens, UniProt Q9Y243); test: kinase panel; type: biochemical
PASK = PASK (Homo sapiens, UniProt Q96RG2); test: kinase panel; type: biochemical
MAPKAPK3 = MAPKAPK3 (Homo sapiens, UniProt Q16644); test: kinase panel; type: biochemical
RSK1 = RSK1 (Homo sapiens, UniProt Q15418); test: kinase panel; type: biochemical
MARK1 = MARK1 (Homo sapiens, UniProt Q9P0L2); test: kinase panel; type: biochemical
CLK3 = CLK3 (Homo sapiens, UniProt P49761); test: kinase panel; type: biochemical
RSK4 = RSK4 (Homo sapiens, UniProt Q9UK32); test: kinase panel; type: biochemical
ARG = ARG (Homo sapiens, UniProt P42684); test: kinase panel; type: biochemical
HASPIN = HASPIN (Homo sapiens, UniProt Q8TF76); test: kinase panel; type: biochemical
SGK3 = SGK3 (Homo sapiens, UniProt Q96BR1); test: kinase panel; type: biochemical
SIK = SIK (Homo sapiens, UniProt P57059); test: kinase panel; type: biochemical
DAPK3 = DAPK3 (Homo sapiens, UniProt O43293); test: kinase panel; type: biochemical
DCAMKL2 = DCAMKL2 (Homo sapiens, UniProt Q8N568); test: kinase panel; type: biochemical
MKNK1 = MKNK1 (Homo sapiens, UniProt Q9BUB5); test: kinase panel; type: biochemical
SNF1LK2 = SNF1LK2 (Homo sapiens, UniProt Q9H0K1); test: kinase panel; type: biochemical
AXL = AXL (Homo sapiens, UniProt P30530); test: kinase panel; type: biochemical
PIM3 = PIM3 (Homo sapiens, UniProt Q86V86); test: kinase panel; type: biochemical
INSR = INSR (Homo sapiens, UniProt P06213); test: kinase panel; type: biochemical
MSSK1 = MSSK1 (Homo sapiens, UniProt Q9UPE1); test: kinase panel; type: biochemical
PKC-ALPHA = PKC-ALPHA (Homo sapiens, UniProt P17252); test: kinase panel; type: biochemical
EPH-A1 = EPH-A1 (Homo sapiens, UniProt P21709); test: kinase panel; type: biochemical
EPH-A1, sequence (P21709 26-976): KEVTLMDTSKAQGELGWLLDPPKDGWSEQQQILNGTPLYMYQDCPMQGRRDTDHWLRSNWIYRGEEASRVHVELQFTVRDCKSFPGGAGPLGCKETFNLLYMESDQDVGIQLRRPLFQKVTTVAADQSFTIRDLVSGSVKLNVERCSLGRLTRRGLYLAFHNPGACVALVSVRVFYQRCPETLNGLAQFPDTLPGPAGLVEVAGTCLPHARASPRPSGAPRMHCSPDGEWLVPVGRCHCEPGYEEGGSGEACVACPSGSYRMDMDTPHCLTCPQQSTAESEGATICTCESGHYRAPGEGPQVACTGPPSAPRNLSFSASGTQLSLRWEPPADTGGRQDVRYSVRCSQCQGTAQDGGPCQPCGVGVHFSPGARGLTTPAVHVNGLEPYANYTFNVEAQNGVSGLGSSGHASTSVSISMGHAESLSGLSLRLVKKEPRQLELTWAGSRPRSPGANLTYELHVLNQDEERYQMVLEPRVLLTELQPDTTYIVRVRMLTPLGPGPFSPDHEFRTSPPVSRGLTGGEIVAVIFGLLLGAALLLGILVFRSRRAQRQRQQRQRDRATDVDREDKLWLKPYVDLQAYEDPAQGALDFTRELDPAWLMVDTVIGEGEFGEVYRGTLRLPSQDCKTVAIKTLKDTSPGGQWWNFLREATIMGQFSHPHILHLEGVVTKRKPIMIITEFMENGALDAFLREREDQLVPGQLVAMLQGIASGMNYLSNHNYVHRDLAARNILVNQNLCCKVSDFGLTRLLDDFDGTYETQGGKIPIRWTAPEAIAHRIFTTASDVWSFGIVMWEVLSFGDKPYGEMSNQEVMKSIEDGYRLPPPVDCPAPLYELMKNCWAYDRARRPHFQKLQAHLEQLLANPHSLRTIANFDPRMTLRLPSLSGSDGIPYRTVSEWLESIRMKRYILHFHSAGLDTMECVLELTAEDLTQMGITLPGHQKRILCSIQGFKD

MST1 = MST1 (Homo sapiens, UniProt Q13043); test: kinase panel; type: biochemical
SYK = SYK (Homo sapiens, UniProt P43405); test: kinase panel; type: biochemical
EPH-A5 = EPH-A5 (Homo sapiens, UniProt P54756); test: kinase panel; type: biochemical
CAMK4 = CAMK4 (Homo sapiens, UniProt Q16566); test: kinase panel; type: biochemical
CAMK4, sequence (Q16566 whole entry): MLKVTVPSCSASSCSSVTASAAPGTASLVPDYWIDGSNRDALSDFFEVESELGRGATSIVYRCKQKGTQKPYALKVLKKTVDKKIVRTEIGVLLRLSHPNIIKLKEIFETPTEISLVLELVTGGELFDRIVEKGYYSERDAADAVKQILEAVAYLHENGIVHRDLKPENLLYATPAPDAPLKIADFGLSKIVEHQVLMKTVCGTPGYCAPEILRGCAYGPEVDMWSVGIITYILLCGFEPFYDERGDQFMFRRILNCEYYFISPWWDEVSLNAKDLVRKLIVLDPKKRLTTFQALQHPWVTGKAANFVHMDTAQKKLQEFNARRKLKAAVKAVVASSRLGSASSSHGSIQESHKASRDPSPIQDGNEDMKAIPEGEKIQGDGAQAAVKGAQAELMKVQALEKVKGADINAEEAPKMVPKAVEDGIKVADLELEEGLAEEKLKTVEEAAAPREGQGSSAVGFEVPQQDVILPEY

JNK3 = JNK3 (Homo sapiens, UniProt P53779); test: kinase panel; type: biochemical
PLK3 = PLK3 (Homo sapiens, UniProt Q9H4B4); test: kinase panel; type: biochemical
TNK1 = TNK1 (Homo sapiens, UniProt Q13470); test: kinase panel; type: biochemical
FES = FES (Homo sapiens, UniProt P07332); test: kinase panel; type: biochemical
FES, sequence (P07332 whole entry): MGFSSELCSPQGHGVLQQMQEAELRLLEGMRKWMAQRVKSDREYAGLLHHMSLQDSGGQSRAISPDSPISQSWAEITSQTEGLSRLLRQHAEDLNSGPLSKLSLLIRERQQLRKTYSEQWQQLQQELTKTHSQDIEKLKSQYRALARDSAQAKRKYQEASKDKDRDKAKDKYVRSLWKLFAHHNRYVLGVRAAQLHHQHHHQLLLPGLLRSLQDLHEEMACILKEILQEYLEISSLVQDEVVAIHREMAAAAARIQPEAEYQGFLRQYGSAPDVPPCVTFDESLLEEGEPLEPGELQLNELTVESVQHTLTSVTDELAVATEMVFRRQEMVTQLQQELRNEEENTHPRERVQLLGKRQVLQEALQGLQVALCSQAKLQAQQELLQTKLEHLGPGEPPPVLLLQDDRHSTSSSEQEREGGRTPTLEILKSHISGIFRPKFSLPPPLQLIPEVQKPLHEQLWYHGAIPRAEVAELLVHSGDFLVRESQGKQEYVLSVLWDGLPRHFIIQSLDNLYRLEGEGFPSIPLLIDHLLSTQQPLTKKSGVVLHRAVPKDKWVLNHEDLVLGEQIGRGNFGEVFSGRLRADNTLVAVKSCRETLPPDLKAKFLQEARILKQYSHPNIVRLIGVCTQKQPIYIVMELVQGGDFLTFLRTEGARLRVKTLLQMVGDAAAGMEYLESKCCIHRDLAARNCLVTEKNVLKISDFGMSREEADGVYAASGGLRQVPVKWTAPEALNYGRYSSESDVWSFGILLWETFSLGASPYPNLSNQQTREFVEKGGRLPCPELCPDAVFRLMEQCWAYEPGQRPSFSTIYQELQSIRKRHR

FGFR1 = FGFR1 (Homo sapiens, UniProt P11362); test: kinase panel; type: biochemical
TSSK1 = TSSK1 (Homo sapiens, UniProt Q9BXA7); test: kinase panel; type: biochemical
FGFR2 = FGFR2 (Homo sapiens, UniProt P21802); test: kinase panel; type: biochemical
CDK6-CYCLIND3 = CDK6-CYCLIND3 (Homo sapiens, UniProt Q00534); test: kinase panel; type: biochemical
CDK6-CYCLIND3, sequence (Q00534 whole entry): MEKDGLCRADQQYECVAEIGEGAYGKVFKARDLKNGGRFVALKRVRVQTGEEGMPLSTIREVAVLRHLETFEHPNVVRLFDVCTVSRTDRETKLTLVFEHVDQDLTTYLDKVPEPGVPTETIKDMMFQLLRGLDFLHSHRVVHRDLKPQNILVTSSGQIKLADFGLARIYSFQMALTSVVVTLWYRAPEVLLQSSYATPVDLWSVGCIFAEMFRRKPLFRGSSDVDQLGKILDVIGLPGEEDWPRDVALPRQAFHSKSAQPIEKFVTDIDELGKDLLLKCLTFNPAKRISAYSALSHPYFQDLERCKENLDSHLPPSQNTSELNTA
CDK6-CYCLIND3, sequence (P30281 whole entry partner): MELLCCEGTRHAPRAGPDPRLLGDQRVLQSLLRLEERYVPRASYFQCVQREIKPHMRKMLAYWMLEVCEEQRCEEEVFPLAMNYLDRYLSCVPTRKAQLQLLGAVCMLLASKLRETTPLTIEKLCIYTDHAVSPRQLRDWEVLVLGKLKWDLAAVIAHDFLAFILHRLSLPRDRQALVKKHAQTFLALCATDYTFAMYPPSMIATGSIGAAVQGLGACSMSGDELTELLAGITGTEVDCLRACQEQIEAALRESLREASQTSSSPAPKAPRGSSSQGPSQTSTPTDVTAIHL

LRRK2-G2019S = LRRK2-G2019S (Homo sapiens, UniProt Q5S007, G2019S); test: kinase panel; type: biochemical
P38-GAMMA = P38-GAMMA (Homo sapiens, UniProt P53778); test: kinase panel; type: biochemical
FGR = FGR (Homo sapiens, UniProt P09769); test: kinase panel; type: biochemical
PAK1 = PAK1 (Homo sapiens, UniProt Q13153); test: kinase panel; type: biochemical
FLT-3 = FLT-3 (Homo sapiens, UniProt P36888); test: kinase panel; type: biochemical
FLT-3, sequence (P36888 27-993): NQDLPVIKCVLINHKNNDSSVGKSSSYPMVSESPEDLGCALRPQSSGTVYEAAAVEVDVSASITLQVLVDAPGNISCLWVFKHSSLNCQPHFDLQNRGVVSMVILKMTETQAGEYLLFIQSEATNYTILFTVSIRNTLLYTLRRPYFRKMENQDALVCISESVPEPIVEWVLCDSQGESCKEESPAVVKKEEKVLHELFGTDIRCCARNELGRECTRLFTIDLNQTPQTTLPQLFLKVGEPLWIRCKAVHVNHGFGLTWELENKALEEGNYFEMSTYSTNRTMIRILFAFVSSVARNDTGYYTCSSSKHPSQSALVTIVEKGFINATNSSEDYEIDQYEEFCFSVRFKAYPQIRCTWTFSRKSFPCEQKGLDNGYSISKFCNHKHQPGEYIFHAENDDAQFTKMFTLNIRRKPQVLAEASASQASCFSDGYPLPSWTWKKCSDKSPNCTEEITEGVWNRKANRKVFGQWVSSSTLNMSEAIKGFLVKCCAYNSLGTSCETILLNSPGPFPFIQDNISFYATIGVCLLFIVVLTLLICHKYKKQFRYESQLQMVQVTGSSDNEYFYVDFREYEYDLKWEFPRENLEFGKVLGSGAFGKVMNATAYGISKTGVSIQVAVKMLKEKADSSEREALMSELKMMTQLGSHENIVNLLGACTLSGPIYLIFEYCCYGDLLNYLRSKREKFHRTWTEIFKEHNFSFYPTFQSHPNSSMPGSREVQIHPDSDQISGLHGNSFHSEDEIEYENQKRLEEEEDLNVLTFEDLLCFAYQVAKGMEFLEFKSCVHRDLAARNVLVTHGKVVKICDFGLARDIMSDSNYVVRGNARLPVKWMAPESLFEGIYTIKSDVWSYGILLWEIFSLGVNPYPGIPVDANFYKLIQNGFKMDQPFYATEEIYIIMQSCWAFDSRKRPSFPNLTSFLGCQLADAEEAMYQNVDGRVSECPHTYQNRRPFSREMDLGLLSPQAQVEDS

Adenosine 3 receptor = Adenosine 3 receptor (Homo sapiens, UniProt P0DMS8); test: Adenosine 3 receptor binding assay
Adenosine 3 receptor, sequence (P0DMS8 whole entry): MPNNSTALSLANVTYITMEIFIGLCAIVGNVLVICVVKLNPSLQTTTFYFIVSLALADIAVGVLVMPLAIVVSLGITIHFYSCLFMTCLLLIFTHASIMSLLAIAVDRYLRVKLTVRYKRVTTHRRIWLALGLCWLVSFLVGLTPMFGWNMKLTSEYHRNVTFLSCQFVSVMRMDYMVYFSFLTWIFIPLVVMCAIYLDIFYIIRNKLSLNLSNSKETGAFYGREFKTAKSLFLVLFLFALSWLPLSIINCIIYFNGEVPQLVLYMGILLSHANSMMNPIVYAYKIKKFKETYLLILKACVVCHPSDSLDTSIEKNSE

[1] = target: Beta 1 adrenergic receptor (Homo sapiens, UniProt P08588); test: Beta 1 adrenergic receptor assay; type: binding
Beta 1 adrenergic receptor, sequence (P08588 whole entry, species assumed): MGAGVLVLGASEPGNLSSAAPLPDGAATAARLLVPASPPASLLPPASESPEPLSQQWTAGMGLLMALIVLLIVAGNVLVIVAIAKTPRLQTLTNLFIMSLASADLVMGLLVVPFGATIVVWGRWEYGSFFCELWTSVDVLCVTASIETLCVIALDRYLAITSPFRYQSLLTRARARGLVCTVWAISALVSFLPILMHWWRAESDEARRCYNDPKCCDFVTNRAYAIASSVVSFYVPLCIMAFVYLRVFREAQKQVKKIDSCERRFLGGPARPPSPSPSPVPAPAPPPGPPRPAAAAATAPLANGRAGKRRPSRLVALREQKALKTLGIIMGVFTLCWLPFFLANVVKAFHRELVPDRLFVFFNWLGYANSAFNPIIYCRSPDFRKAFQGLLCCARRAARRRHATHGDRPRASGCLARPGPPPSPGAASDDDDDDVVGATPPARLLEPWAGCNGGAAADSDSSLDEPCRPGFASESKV

MAPK1, sequence (P28482 whole entry): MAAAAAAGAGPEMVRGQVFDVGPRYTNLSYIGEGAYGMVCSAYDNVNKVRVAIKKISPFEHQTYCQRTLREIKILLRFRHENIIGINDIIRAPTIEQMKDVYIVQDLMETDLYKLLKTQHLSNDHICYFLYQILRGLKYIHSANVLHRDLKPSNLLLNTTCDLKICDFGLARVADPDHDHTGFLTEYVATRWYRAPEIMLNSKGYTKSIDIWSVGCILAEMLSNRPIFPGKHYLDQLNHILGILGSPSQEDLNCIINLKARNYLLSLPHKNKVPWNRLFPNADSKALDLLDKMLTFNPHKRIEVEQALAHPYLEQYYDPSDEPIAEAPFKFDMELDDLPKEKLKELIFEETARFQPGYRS

O=C(Nc1nccs1)C(c1cc(F)ccc1O)N1Cc2ccccc2C1=O (stereo not drawn) [EAI045, 2-(5-fluoro-2-hydroxyphenyl)-2-(1-oxo-2,3-dihydro-1H-isoindol-2-yl)-N-(1,3-thiazol-2-yl)acetamide] was tested, and the inhibition at 1 µM (AKT1) was 0%, the inhibition at 1 µM (MAPK1) was 0% and the inhibition at 1 µM (FYN) was 0%. It also gave an inhibition at 1 µM (PAK6) of 0%, an inhibition at 1 µM (RON) of 0% and an inhibition at 1 µM (AKT3) of 0%. For the same compound, the inhibition at 1 µM (PASK) was 1%, the inhibition at 1 µM (MAPKAPK3) was 0% and the inhibition at 1 µM (RSK1) was 0%. For the same compound, the inhibition at 1 µM (MARK1) was 0%, the inhibition at 1 µM (CLK3) was 0% and the inhibition at 1 µM (RSK4) was 0%. For the same compound, the inhibition at 1 µM (ARG) was 2%, the inhibition at 1 µM (HASPIN) was 1% and the inhibition at 1 µM (SGK3) was 0%. It also gave an inhibition at 1 µM (SIK) of 0%, an inhibition at 1 µM (DAPK3) of 1% and an inhibition at 1 µM (DCAMKL2) of 0%. For the same compound, the inhibition at 1 µM (MKNK1) was 0%, the inhibition at 1 µM (SNF1LK2) was 0% and the inhibition at 1 µM (AXL) was 4%. The inhibition at 1 µM (PIM3) was 1%, the inhibition at 1 µM (INSR) was 0% and the inhibition at 1 µM (MSSK1) was 0%. For the same compound, the inhibition at 1 µM (PKC-ALPHA) was 0%, the inhibition at 1 µM (EPH-A1) was 0% and the inhibition at 1 µM (MST1) was 0%. For the same compound, the inhibition at 1 µM (SYK) was 0%, the inhibition at 1 µM (EPH-A5) was 4% and the inhibition at 1 µM (CAMK4) was 1%. The inhibition at 1 µM (JNK3) was 0%, the inhibition at 1 µM (PLK3) was 5% and the inhibition at 1 µM (TNK1) was 0%. For the same compound, the inhibition at 1 µM (FES) was 2%, the inhibition at 1 µM (FGFR1) was 5% and the inhibition at 1 µM (TSSK1) was 2%. It also gave an inhibition at 1 µM (FGFR2) of 1%, an inhibition at 1 µM (CDK6-CYCLIND3) of 2% and an inhibition at 1 µM (LRRK2-G2019S) of 0%. It also gave an inhibition at 1 µM (P38-GAMMA) of 2%, an inhibition at 1 µM (FGR) of 0% and an inhibition at 1 µM (PAK1) of 0%. For the same compound, the inhibition at 1 µM (FLT-3) was 0%, the IC50 (Adenosine 3 receptor) was over 30 µM and the IC50 [1] was over 30 µM.
